# Experimental data: ChEMBL document CHEMBL3885861, “Open TG-GATES”
# Species: Rattus norvegicus
# Experiment: Open TG-GATES - Regimen: Daily Repeat
# Format: toxicity, organism-based, Sprague-Dawley
# Set-up: regimen Daily Repeat, gender Male, age 6 weeks
# Conditions: in vivo, po, route gavage; for APTT / Bas / Eos / Fbg / Hb / Ht / Lym / MCH / MCV / Mono / Neu / PT / Plat / RBC / Ret / WBC: tissue Blood; for KIDNEY_L / KIDNEY_R / KIDNEY_TOTAL: tissue Kidney; for LIVER: tissue Liver; for ALP / ALT / AST / BUN / CRE / Ca / Cl / DBIL / GLC / IP / K / LDH / Na / PL / RALB / TBIL / TP / gamma-GTP: tissue Plasma
# [1] = 0 mg/kg, 72 h, dose level Control, time 3 day
# [2] = 0 mg/kg, […], dose level Control, time 7 day
# [3] = 0 mg/kg, […], dose level Control, time 14 day
# [4] = 0 mg/kg, […], dose level Control, time 28 day
smiles,measurement,setting,value
NC(=O)N1c2ccccc2C=Cc2ccccc21 [CARBAMAZEPINE],TERMINAL_BW,[1],235.3 g
same,APTT,[1],19.1 s
same,Bas,[1],0%
same,Eos,[1],1%
same,Fbg,[1],213.8 mg/dL
same,Hb,[1],13.6 g/dL
same,Ht,[1],40.2%
same,Lym,[1],79%
same,MCH,[1],21 pg
same,MCV,[1],61.9 fL
same,Mono,[1],3.6%
same,Neu,[1],15.6%
same,PT,[1],12.3 s
same,Plat,[1],123.2 x10_4/uL
same,RBC,[1],648.8 x10_4/ul
same,Ret,[1],4.9%
same,WBC,[1],95.6 x10_2/uL
same,KIDNEY_L,[1],1.1 g
same,KIDNEY_R,[1],1.1 g
same,KIDNEY_TOTAL,[1],2.2 g
same,LIVER,[1],11.5 g
same,ALP,[1],1022.4 IU/L
same,ALT,[1],41.4 IU/L
same,AST,[1],77 IU/L
same,BUN,[1],15.6 mg/dL
same,CRE,[1],0.4 mg/dL
same,Ca,[1],10.7 mg/dL
same,Cl,[1],102.4 meq/L
same,DBIL,[1],0.08 mg/dL
same,GLC,[1],213.8 mg/dL
same,IP,[1],7.8 mg/dL
same,K,[1],3.8 meq/L
same,LDH,[1],178.8 IU/L
same,Na,[1],140.4 meq/L
same,PL,[1],144 mg/dL
same,RALB,[1],3.3 g/dL
same,TBIL,[1],0.1 mg/dL
same,TP,[1],5.6 g/dL
same,gamma-GTP,[1],0.8 IU/L
same,TERMINAL_BW,[2],265.1 g
same,TERMINAL_BW,[3],321.1 g
same,TERMINAL_BW,[4],388.8 g
same,APTT,[2],21.2 s
same,Bas,[2],0%
same,Eos,[2],1%
same,Fbg,[2],223 mg/dL
same,Hb,[2],14 g/dL
same,Ht,[2],40.8%
same,Lym,[2],81%
same,MCH,[2],20.8 pg
same,MCV,[2],60.5 fL
same,Mono,[2],2.4%
same,Neu,[2],14.4%
same,PT,[2],11.9 s
same,Plat,[2],122.6 x10_4/uL
same,RBC,[2],674.4 x10_4/ul
same,Ret,[2],3.8%
same,WBC,[2],90.9 x10_2/uL
same,APTT,[3],22 s
same,Bas,[3],0%
same,Eos,[3],1%
same,Fbg,[3],219 mg/dL
same,Hb,[3],14.5 g/dL
same,Ht,[3],41.7%
same,Lym,[3],82.2%
same,MCH,[3],20.7 pg
same,MCV,[3],59.6 fL
same,Mono,[3],2.6%
same,Neu,[3],13.2%
same,PT,[3],12.2 s
same,Plat,[3],129 x10_4/uL
same,RBC,[3],700.4 x10_4/ul
same,Ret,[3],4.2%
same,WBC,[3],120.8 x10_2/uL
same,APTT,[4],20.4 s
same,Bas,[4],0%
same,Eos,[4],1.2%
same,Fbg,[4],212.8 mg/dL
same,Hb,[4],15.3 g/dL
same,Ht,[4],43.3%
same,Lym,[4],81%
same,MCH,[4],20.1 pg
same,MCV,[4],56.8 fL
same,Mono,[4],2.4%
same,Neu,[4],14.6%
same,PT,[4],12.2 s
same,Plat,[4],111.8 x10_4/uL
same,RBC,[4],762 x10_4/ul
same,Ret,[4],2.4%
same,WBC,[4],105.6 x10_2/uL
same,KIDNEY_L,[2],1.1 g
same,KIDNEY_R,[2],1.1 g
same,KIDNEY_TOTAL,[2],2.3 g
same,KIDNEY_L,[3],1.3 g
same,KIDNEY_R,[3],1.2 g
same,KIDNEY_TOTAL,[3],2.5 g
same,KIDNEY_L,[4],1.4 g
same,KIDNEY_R,[4],1.4 g
same,KIDNEY_TOTAL,[4],2.8 g
same,LIVER,[2],12.2 g
same,LIVER,[3],13.6 g
same,LIVER,[4],15.2 g
same,ALP,[2],993 IU/L
same,ALT,[2],37.6 IU/L
same,AST,[2],74 IU/L
same,BUN,[2],16.8 mg/dL
same,CRE,[2],0.4 mg/dL
same,Ca,[2],10.5 mg/dL
same,Cl,[2],102.4 meq/L
same,DBIL,[2],0.1 mg/dL
same,GLC,[2],218.2 mg/dL
same,IP,[2],7.5 mg/dL
same,K,[2],3.8 meq/L
same,LDH,[2],218.6 IU/L
same,Na,[2],140.6 meq/L
same,PL,[2],158.6 mg/dL
same,RALB,[2],3.5 g/dL
same,TBIL,[2],0.2 mg/dL
same,TP,[2],5.8 g/dL
same,gamma-GTP,[2],1 IU/L
same,ALP,[3],817.2 IU/L
same,ALT,[3],36 IU/L
same,AST,[3],64 IU/L
same,BUN,[3],16.7 mg/dL
same,CRE,[3],0.5 mg/dL
same,Ca,[3],10.7 mg/dL
same,Cl,[3],102.4 meq/L
same,DBIL,[3],0.1 mg/dL
same,GLC,[3],207.4 mg/dL
same,IP,[3],7 mg/dL
same,K,[3],3.8 meq/L
same,LDH,[3],204.6 IU/L
same,Na,[3],141.6 meq/L
same,PL,[3],151.4 mg/dL
same,RALB,[3],3.5 g/dL
same,TBIL,[3],0.2 mg/dL
same,TP,[3],5.9 g/dL
same,gamma-GTP,[3],1 IU/L
same,ALP,[4],739.6 IU/L
same,ALT,[4],35.4 IU/L
same,AST,[4],68.2 IU/L
same,BUN,[4],18 mg/dL
same,CRE,[4],0.5 mg/dL
same,Ca,[4],10.3 mg/dL
same,Cl,[4],102 meq/L
same,DBIL,[4],0.1 mg/dL
same,GLC,[4],224.8 mg/dL
same,IP,[4],6.7 mg/dL
same,K,[4],3.4 meq/L
same,LDH,[4],182.6 IU/L
same,Na,[4],141 meq/L
same,PL,[4],147.8 mg/dL
same,RALB,[4],3.4 g/dL
same,TBIL,[4],0.2 mg/dL
same,TP,[4],6.2 g/dL
same,gamma-GTP,[4],1.2 IU/L
same,TERMINAL_BW,"30 mg/kg, 72 h, dose level Low, time 3 day",237.7 g
